Results reported in patent US20260364073A1, “MAVACAMTEN AND DERIVATIVES THEREOF FOR USE IN TREATING ATRIAL DYSFUNCTION” (MyoKardia, Inc., priority 2022, published 2026).

What was measured:
[1] = biological target: T1, bovine cardiac synthetic myosin filaments (Bos taurus, UniProt Q9BE39); assay: DRX and SRX ATPase rates in bovine cardiac synthetic myosin filaments; type: biochemical; conditions: role: inhibitor, range of concentrations (FIG. 5), Compound A compared with mavacamten
T1 construct: single-turnover ATPase (DRX/SRX)

[2] = system: α-MHC / β-MHC in the LA; assay: LA myosin isoform content (α-MHC to β-MHC conversion) in HCM pigs; type: in vivo, Yucatan mini-pigs; conditions: HCM pigs (FIG. 3), in comparison to untreated HCM pig controls
Text: (§1) FIG. 1 is a schematic diagram showing the design for an experiment on the chronic effects of Compound A on HCM and on left atrial and left ventricular geometry and function in a mini-pig model of inherited HCM (“HCM pigs”). Compound A dose is increased over the first 12 weeks of the study to account for weight gain. CMPD A: Compound A. CTRL: control. cMR: cardiac MRI. PV: LV pressure and volume studies (invasive hemodynamics). RNA: LV gene expression studies. HIST: histology. BIO: LV/LA fiber biomechanical studies.
FIG. 3 is a set of graphs showing the effects of Compound A on left atrial (LA) geometry and function in HCM pigs.
(§2) Young (~1 month) cloned Yucatan mini-pigs with a heterozygous MYH7 R403Q mutation (“HCM pigs”) were treated and evaluated as shown in FIG. 1. The pigs were randomly assigned to one of two arms: untreated controls (CTRL, n=29) or daily Compound A (n=22; PO); untreated wild-type pigs (WT) served as […]. The pigs treated with Compound A were divided into two cohorts: A and B. Treated animals received progressively increasing Compound A doses (5, 7.5, 10, and 15 mg/day PO) to account for weight gain. After 14 weeks of treatment, pigs underwent in vivo cardiac MRI (cMR) imaging, including T1 mapping and extracellular volume (ECV) assessments. […]

[3] = system: HCM pigs (heterozygous MYH7 R403Q mutation); assay: Chronic Compound A treatment in mini-pig model of inherited HCM: mortality, cTnT, cardiac MRI; type: in vivo, Yucatan mini-pigs; conditions: chronic treatment PO
Text: as §1
This Example describes an in vivo study that evaluates the chronic effects of Compound A, in a genetic large-animal model of HCM.
as §2

T1 sequence (Q9BE39 whole entry): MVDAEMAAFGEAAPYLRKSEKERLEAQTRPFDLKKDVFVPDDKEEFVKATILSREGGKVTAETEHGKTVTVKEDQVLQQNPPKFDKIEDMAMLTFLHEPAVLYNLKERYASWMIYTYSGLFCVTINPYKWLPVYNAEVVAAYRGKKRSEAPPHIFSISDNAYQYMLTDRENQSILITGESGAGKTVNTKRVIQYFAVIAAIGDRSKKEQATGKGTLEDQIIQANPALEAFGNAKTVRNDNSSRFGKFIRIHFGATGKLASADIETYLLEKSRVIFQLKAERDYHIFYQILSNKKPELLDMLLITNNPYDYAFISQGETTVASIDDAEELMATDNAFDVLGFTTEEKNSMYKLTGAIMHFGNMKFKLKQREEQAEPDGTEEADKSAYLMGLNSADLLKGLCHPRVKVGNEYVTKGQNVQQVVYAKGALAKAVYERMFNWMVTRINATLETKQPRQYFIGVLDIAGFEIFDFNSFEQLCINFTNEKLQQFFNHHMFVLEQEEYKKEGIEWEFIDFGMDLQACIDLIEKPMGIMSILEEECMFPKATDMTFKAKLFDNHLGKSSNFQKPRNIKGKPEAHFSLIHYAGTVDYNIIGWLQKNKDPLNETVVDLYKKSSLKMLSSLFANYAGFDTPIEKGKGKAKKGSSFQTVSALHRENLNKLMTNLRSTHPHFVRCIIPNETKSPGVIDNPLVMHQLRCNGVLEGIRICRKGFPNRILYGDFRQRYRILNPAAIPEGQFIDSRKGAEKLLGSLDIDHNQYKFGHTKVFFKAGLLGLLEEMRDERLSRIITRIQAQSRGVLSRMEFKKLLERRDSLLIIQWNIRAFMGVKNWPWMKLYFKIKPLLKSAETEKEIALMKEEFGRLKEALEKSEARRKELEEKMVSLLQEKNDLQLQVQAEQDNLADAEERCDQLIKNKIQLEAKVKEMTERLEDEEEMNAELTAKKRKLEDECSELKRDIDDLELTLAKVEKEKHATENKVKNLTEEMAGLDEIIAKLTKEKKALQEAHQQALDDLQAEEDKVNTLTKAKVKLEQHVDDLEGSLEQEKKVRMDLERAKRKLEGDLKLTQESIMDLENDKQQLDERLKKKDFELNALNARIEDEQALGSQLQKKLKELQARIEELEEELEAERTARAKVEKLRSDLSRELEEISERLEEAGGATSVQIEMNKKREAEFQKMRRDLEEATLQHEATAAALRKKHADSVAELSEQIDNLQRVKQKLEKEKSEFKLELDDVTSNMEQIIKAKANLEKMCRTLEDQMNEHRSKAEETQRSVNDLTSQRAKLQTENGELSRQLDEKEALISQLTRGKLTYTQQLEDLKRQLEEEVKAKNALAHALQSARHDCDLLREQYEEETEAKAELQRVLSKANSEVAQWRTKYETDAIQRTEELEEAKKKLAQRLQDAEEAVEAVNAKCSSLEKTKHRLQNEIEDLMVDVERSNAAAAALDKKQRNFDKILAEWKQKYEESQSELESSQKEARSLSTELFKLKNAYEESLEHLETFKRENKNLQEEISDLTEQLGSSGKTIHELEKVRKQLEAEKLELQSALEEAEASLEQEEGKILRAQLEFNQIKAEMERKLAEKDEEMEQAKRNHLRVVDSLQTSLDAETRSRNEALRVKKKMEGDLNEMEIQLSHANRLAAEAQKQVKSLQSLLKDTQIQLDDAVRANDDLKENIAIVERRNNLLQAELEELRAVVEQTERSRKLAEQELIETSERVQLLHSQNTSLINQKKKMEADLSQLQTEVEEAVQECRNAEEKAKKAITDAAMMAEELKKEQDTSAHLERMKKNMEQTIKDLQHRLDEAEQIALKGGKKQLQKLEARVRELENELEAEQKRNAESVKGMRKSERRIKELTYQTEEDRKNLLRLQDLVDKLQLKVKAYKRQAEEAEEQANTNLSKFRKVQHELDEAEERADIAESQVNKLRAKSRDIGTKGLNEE
T1 sequence (P85100 whole entry partner): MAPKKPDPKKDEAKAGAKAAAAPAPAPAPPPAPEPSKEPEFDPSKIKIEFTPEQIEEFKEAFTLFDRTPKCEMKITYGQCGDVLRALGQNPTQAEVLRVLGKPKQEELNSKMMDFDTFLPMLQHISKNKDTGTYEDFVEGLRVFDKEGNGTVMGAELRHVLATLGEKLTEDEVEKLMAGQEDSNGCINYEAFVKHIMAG
T1 sequence (Q3SZE5 whole entry partner): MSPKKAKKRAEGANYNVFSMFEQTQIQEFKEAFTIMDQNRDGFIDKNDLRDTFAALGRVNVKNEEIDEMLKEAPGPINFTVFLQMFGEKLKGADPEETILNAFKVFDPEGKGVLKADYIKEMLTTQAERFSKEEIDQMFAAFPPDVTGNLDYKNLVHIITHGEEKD

Row | disordered relaxed state (DRX) ATPase rate (as a fraction of control) [1] | super-relaxed state (SRX) ATPase rate (as a fraction of control) [1] | SMILES | conversion of α-MHC to β-MHC in the LA [2] | left atrial remodeling [3]
1 | similar | similar | CC(C)n1c(=O)cc(N[C@@H](C)c2ccccc2)[nH]c1=O [mavacamten] | – | –
2 | similar | similar | CC(C)n1c(=O)cc(N[C@@H](C)c2cccc(F)c2)[nH]c1=O [Compound A] | prevented the conversion of α-MHC to β-MHC in the LA | prevented left atrial remodeling
